In the NIST ThermoML archive (doi:10.1021/je0340755):

Assay: xn = mol fraction of the nth substance listed
Settings: 101.3 kPa, Liquid; for viscosity: Capillary tube (Ostwald / Ubbelohde) method

OCCCO [propan-1,3-diol] + O
Settings	mass density, 298.15 K [kg/m3]	mass density, 308.15 K [kg/m3]	mass density, 318.15 K [kg/m3]	speed of sound, 298.15 K [m/s]	speed of sound, 308.15 K [m/s]	speed of sound, 318.15 K [m/s]	viscosity, 298.15 K [mPa·s]	viscosity, 308.15 K [mPa·s]	viscosity, 318.15 K [mPa·s]
x2 = 0.0622	1050.19	1043.88	1037.53	1650.1	1627.1	1609.1	37.15	25.31	15.8
x2 = 0.1496	1050.32	1044.01	1037.64	1654.3	1634.1	1616	32.92	22.46	14.16
x2 = 0.2563	1050.38	1044.07	1037.68	1670.2	1645.9	1627.8	27.68	18.9	12.19
x2 = 0.35	1050.3	1043.97	1037.55	1693.5	1662.2	1643	23.09	15.8	10.48
x2 = 0.4555	1049.74	1043.39	1036.94	1717.8	1681	1661	18.09	12.44	8.554
x2 = 0.5	1049.21	1042.86	1036.42	1723.1	1688	–	16.07	11.08	7.749
x2 = 0.5548	1048.18	1041.87	–	1726.1	1695.1	–	13.67	9.49	6.767
x2 = 0.6522	1044.85	1038.75	–	1723.3	1702.2	–	9.731	6.881	5.075
x2 = 0.7553	1038.16	1032.55	–	1712.1	1698.8	–	6.136	4.495	3.415
x2 = 0.8522	1027.32	1022.53	–	1689.1	1676.1	–	3.434	2.66	2.057
x2 = 0.9085	1018.19	1014.02	–	1653.2	1642.1	–	2.22	1.794	1.397
x2 = 0.9147	1017.03	1012.94	–	1646.8	1637.1	–	2.104	1.708	1.331
x2 = 0.9255	1014.92	1010.96	–	1636.1	1627.1	–	1.91	1.562	1.221
x2 = 0.935	1012.97	1009.13	–	1623.9	1617.2	–	1.749	1.439	1.127
x2 = 0.9548	1008.63	1005.04	–	1596	1594.1	–	1.442	1.197	0.945
x2 = 0.9556	1008.44	1004.87	–	1594	1593.1	–	1.43	1.188	0.938
x2 = 0.9602	1007.37	1003.85	–	1586	1586.2	–	1.365	1.135	0.898
x2 = 0.97	1005	1001.61	–	1568.2	1572.1	–	1.233	1.025	0.817
x2 = 0.9801	1002.45	999.19	–	1547.1	1556.1	–	1.107	0.917	0.737
x2 = 0.9897	999.9	996.76	–	1525.3	1539.3	–	0.997	0.819	0.667
x2 = 0.9921	999.25	996.14	–	1519.1	1534.1	–	0.971	0.795	0.65
x2 = 0.9951	998.42	995.35	–	1511	1528.8	–	0.939	0.766	0.629
